US5043332A, “Novel 11β-substituted -19-nor-steriods” (priority 1981, dated 1991)
Like-named read-outs stand apart in the source and are kept apart here.

Key:
[1] = tested on: thymocytes of surrenalectomized rats; test: Antiglucocorticoidal activity, incorporation of tritiated uridine in thymocytes; format: cell-based; conditions: for % inhibition of effect of Dexamethasone (symbol) / inhibition at 1 µM: 5 × 10^-8 M dexamethasone + test product 10^-6 M; for inhibition at 0.1 µM / inhibition at 0.01 µM / inhibition at 1 µM: Rattus norvegicus, Thymocyte; for inhibition at 0.1 µM: 5 × 10^-8 M dexamethasone + test product 10^-7 M; for inhibition at 0.01 µM: 5 × 10^-8 M dexamethasone + test product 10^-8 M; for opposition to the effect of dexamethasone on tritiated uridine incorporation (in words): with 5×10^-8 M dexamethasone
Description: III. Antiglucocorticoidal Activity
The test used was that of Dausse et al [Molecular Pharmacology, Vol. 13 (1977), p. 948-955] entitled "The relationship between glucocorticoid structure and effects upon thymocytes" for […] thymocytes. The thymocytes of surrenalectomized rats were incubated at 37° C. for 3 hours in a nutritive medium containing 5×10^-8 M of dexamethasone in the presence or absence of the test compound at different concentrations. Tritiated uridine was added and incubation was continued for one hour. The incubates were cooled and treated with a 5% trifluoroacetic acid solution and the mixture was filtered with Whatman GF/A paper. The filter was washed 3 times with a 5% trifluoroacetic acid solution and retained radioactivity on the filter was determined.

[2] = molecular target: T1, Progestogen receptor of the uterus of rabbits (Oryctolagus cuniculus, UniProt P06186); test: Progestogen receptor binding (displacement of tritiated product R); parameters: species or system rabbit; conditions: conclusion
T1 construct: The uterus was removed, weighed and homogenized at 0° C; from tissue; host or cells: rabbit uterus, 105,000 g supernatant (estradiol-primed immature rabbits)
T1 sequence (P06186 1-930): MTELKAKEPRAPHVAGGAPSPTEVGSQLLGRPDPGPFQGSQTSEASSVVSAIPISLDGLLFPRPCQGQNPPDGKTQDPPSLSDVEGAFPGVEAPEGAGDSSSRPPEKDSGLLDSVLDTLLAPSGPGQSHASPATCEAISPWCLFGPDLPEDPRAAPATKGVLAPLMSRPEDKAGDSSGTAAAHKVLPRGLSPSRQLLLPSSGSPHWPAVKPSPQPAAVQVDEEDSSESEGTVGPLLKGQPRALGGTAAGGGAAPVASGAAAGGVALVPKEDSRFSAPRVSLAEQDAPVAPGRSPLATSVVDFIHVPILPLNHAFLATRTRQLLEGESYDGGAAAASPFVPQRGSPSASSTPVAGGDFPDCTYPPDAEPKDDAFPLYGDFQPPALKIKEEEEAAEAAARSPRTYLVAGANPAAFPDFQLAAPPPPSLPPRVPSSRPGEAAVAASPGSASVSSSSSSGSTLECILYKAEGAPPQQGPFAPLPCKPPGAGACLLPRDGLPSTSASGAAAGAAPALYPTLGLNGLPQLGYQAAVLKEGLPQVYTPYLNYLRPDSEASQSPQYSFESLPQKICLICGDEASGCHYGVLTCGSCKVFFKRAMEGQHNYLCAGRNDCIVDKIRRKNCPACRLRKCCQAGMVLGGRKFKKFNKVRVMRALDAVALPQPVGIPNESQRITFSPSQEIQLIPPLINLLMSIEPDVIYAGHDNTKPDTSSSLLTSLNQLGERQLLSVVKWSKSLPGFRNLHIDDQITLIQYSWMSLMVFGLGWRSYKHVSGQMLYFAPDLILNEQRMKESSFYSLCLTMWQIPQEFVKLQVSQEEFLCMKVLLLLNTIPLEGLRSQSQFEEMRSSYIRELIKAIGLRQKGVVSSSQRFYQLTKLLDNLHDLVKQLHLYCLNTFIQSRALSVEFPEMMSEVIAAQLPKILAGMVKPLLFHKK
Description: C. Progestogen receptor of the uterus of rabbits
Immature rabbits weighing about 1 kg received a cutaneous application of 25 μg of estradiol and the animals were killed 5 days later. The uterus was removed, weighed and homogenized at 0° C. with a polytetrafluoroethylene-glass Potter, in a buffered TS solution [Tris 10. mM, 0.25M of saccharose, HCl-pH of 7.4] with 1 g of tissue per 50 ml of TS. […] The concentration of tied tritiated R (B) was then measured for each incubate by the technique of adsoprtion on carbon-dextran.
(§1) The calculation of the relative affinity of […] (ARL) was identical for all of the above receptor tests. One traced the following two curves: the percentage of tied tritiated hormone B/T as a function of the logarithm of the cold hormone concentration and B/T as a function of the logarithm of the concentration of the cold test product. One determined the line of the equation. [formula]
(§2) The intersection of the I50 line and the curves permits one to determine the concentrations of the cold hormone of the reference (CH) and the cold test compound (CX) which inhibit by 50% the tieing of tritiated hormone with the receptor. The relative affinity of tieing (ARL) of the test product was determined by the equation: [formula]

[3] = molecular target: T2, Androgen receptor of prostate of rats (Rattus norvegicus, UniProt P15207); test: Androgen receptor binding (displacement of tritiated product P); conditions: conclusion
T2 construct: The prostates were removed, weighed and homogenized at 0° C; from tissue; host or cells: rat prostate, 105,000 g supernatant (castrated male Sprague-Dawley rats)
T2 sequence (P15207 1-902): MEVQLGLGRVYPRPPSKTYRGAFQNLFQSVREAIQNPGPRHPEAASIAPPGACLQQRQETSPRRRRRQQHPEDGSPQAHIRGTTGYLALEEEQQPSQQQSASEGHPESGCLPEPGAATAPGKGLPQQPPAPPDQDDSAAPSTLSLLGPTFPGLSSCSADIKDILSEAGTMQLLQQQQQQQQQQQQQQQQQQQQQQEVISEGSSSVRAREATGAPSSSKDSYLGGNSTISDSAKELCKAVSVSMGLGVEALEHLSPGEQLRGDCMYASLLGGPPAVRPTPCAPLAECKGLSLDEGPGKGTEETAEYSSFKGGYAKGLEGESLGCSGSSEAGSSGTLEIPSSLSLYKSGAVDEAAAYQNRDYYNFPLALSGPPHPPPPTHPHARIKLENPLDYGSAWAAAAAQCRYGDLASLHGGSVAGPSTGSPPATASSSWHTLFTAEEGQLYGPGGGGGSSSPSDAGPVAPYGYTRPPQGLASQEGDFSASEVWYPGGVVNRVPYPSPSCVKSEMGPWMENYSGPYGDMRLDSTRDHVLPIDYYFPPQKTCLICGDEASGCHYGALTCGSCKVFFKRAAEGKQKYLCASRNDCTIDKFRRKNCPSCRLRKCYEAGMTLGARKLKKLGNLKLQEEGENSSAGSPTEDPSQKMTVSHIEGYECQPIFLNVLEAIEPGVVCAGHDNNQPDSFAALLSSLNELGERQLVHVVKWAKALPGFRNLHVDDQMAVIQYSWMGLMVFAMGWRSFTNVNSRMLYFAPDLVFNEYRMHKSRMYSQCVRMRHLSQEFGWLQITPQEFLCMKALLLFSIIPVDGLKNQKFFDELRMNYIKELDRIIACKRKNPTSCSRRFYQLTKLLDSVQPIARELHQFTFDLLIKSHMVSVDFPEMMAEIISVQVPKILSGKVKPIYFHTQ
Description: B. Androgen receptor of prostate of rats
Male Sprague-Dawley EPOS rats weighing of 160 to 200 g were castrated and 24 hours later, the animals were killed. The prostates were removed, weighed and homogenized at 0° C. with a polytetrafluoroethylene-glass Potter with a buffered TS solution (Tris, 10 mM, 0.25M Saccharose, HCl-pH of 7.4) using 1 g of tissue per 5 ml of TS. The homogenate was then ultracentrifuged at 105,000 g for 60 […] (T) of product P or 17α-methyl-Δ^4,9,11 -estratriene-17β-ol-3-one in the presence of increasing concentration (0-1,000×10^-9 M) of either cold P, cold testosterone or the test compound. The concentration of tied tritiated (B) was measured for each incubate by the technique of adsorption on carbon-dextran.
as §1, §2

[4] = read-out: % inhibition of effect of Dexamethasone
[5] = second table, read-out: % of inhibition of effect of Dexamethasone

Structure (SMILES) | inhibition at 0.1 µM [1, 4] | inhibition at 0.01 µM [1, 4] | inhibition at 1 µM [1, 4] | other results
CC#C[C@]1(O)CC[C@H]2[C@@H]3CCc4cc(O)ccc4[C@H]3[C@@H](c3ccc(N(C)C)cc3)C[C@@]21C [2 (17 OH), 11β-(4-dimethylaminophenyl)-17α-(prop-1-ynyl)-Δ^1,3,5(10) -estratriene-3,17β-diol] | 91% | 41% | – | % inhibition of effect of Dexamethasone (symbol) [1]: * (A dose of 10^-6 M inhibited the effect of dexamethasone totally)
C/C=C/[C@]1(O)CC[C@H]2[C@@H]3CCC4=C(CCC(=O)C4)[C@H]3[C@@H](c3cccc(OC)c3)C[C@@]21C [6 (17α propenyle), 11β-(3-methoxyphenyl)-17α-(E)-(prop-1-enyl)-Δ^5(10) -estrene-17β-ol-3-one] | 0% | 0% | 56% | –
CC#C[C@]1(O)CC[C@H]2[C@@H]3CCc4cc(O)ccc4[C@H]3[C@@H](c3ccc(N(C)C)cc3)C[C@@]21C [Example 2, 11β-(4-dimethylaminophenyl)-17α-(prop-1-ynyl)-Δ^1,3,5(10) -estratriene-3,17β-diol] | – | – | – | affinity for progestogen receptors (in words) [2]: very remarkable affinity; opposition to the effect of dexamethasone on tritiated uridine incorporation (in words) [1]: opposed this effect; affinity for androgen receptors (in words) [3]: slightly moderate affinity
CC#C[C@]1(O)CC[C@H]2[C@@H]3CCC4=CC(=O)C(=COC(C)=O)CC4=C3[C@@H](c3ccc(N(C)C)cc3)C[C@@]21C [Example 3, 2-(acetyloxymethylene)-11β-(4-dimethylaminophenyl)-17α-(prop-1-ynyl)-Δ^4,9-estradiene-17β-ol-3-one] | 0% | 0% | 60% | –
CC#C[C@]1(O)CC[C@H]2[C@@H]3CCC4=CC(=O)C(=CN5CCOCC5)CC4=C3[C@@H](c3ccc(N(C)C)cc3)C[C@@]21C [Example 4, 2-(4-morpholinylmethylene)-11β-(4-dimethylaminophenyl)-17α-(prop-1-ynyl)-Δ^4,9-estradiene-17β-ol-3-one] | 0% | 0% | 51% | –
CC#C[C@]1(O)CC[C@H]2[C@@H]3CCC4=C(CCC(=O)C4)[C@H]3[C@@H](c3cccc(OC)c3)C[C@@]21C [Example 6, 11β-(3-methoxyphenyl)-17α-(prop-1-ynyl)-Δ^5(10) -estrene-17β-ol-3-one] | 0% | 0% | 68% | –
CC#C[C@]1(O)CC[C@H]2[C@@H]3CCC4=Cc5oncc5CC4=C3[C@@H](c3ccc(N(C)C)cc3)C[C@@]21C [Example 7, 11β-(4-dimethylaminophenyl)-17α-(prop-1-ynyl)-isoxazolo[4,5-b]-Δ^4,9-estradiene-17β-ol] | 27% | 0% | – | % inhibition of effect of Dexamethasone (symbol) [1]: * (A dose of 10^-6 M inhibited the effect of dexamethasone totally)
C#CC[C@]1(O)CC[C@H]2[C@@H]3CCC4=CC(=O)CCC4=C3[C@@H](c3ccc(N(C)C)cc3)C[C@@]21C [Example 31, 11β-[4-(N,N-dimethylamino)-phenyl]-17α-(prop-2-ynyl)-Δ^4,9-estradiene-17β-ol-3-one] | – | – | – | affinity for progestogen receptors (in words) [2]: very remarkable affinity; inhibition at 1 µM [1, 5]: 99%; inhibition at 0.1 µM [1, 5]: 60%; inhibition at 0.01 µM [1, 5]: 28%; opposition to the effect of dexamethasone on tritiated uridine incorporation (in words) [1]: opposed this effect; affinity for androgen receptors (in words) [3]: slightly moderate affinity
C[C@@H]1C[C@H]2[C@@H]3CCC4=CC(=O)C=C[C@]4(C)[C@@]3(F)[C@@H](O)C[C@]2(C)[C@@]1(O)C(=O)CO [dexamethasone, reference compound] | – | – | – | effect on incorporation of tritiated uridine (in words) ([1]; glucocorticoid alone): provoked a lessening of incorporation of tritiated uridine
